Source: patent US10758627B2, “Peptide-polynucleotide complex for polynucleotide transfection” (Washington University, priority 2015, dated 2020)

Tested on: B16 cells stably expressing GFP-PEST
Assay: Screening for siRNA knockdown: delivery of GFP siRNA for knockdown of GFP in B16 GFP cells
Assay type: cell-based
Conditions: for Able to transfect?: peptide/GFP siRNA particle
Description: Knockdown of B16 cells stably expressing GFP-PEST allowed quick screening for effective siRNA knockdown of GFP expression because the PEST sequence shortens GFP half-life from 26 to 10 hours. Melittin derivatives were chosen based on modifications designed to decrease cytotoxicity as well as improve interactions with oligonucleotides. These peptides were screened for their ability to deliver GFP siRNA for the knockdown of GFP in B16 GFP cells (Table 1, FIG. 1).
The melittin derivatives were formulated by Genscript (Piscataway, N.J.), dissolved at 10 mM in RNAse/DNAse free water (Sigma, St. Louis, Mo.) and stored in 4 μl aliquots at −80° C. before use. Transfection complexes were prepared by diluting the peptide 1:200 in phosphate buffered saline (PBS, Sigma), vortexed for 30 seconds, followed by addition of the appropriate amount of siRNA (stock concentration of 10 μM in 1× siRNA buffer (Thermo)) and incubated for 40 minutes at 37° C. with shaking in an Eppendorf Thermomixer R. Resulting nanoparticles were analyzed for siRNA incorporation by resolution on a 12% polyacrylamide gel followed by ethidium bromide staining. Dynamic light scattering (DLS) and zeta potential measurements were performed on a Zeta Plus particle sizer (Brookhaven Instruments, Newton, Mass.). Serum stability analysis was performed by incubating freshly formed peptide/siRNA nanoparticles in 10 mg/ml Human Serum Albumin (HSA, Sigma) overnight followed by DLS and zeta potential measurements.
B16F10 and RAW264.7 (ATCC, Manassas, Va.) cell lines can be maintained under standard cell culture conditions (37° C. and 5% CO2 in a humidified incubator) in DMEM (Gibco, Carlsbad, Calif.) supplemented with 10% fetal bovine serum (Gibco). B16F10 cells stably expressing GFP can be produced as follows. B16F10 can be transfected (Lipofectamine 2000, Invitrogen) with a fusion of EGFP (pEGFP-N1, Clontech) and the PEST sequence from mouse ornithine decarboxylase (S421-V461) in pEF6V5HisTOPO (Invitrogen). Cells are selected for four rounds with cell sorting by flow cytometry without antibiotic selection. Typically, an aliquot of cells can be maintained in continuous culture for a month without a noticeable change in EGFP expression level. Human umbilical vein endothelial cells (HUVECs) can be purchased from Lifeline Technologies (Frederick, Md.) and cultured in VascuLife Basal Medium (Lifeline Technologies) supplemented with 5 ng/mL EGF, 5 ng/ml bFGF, 15 ng/mL IGF-1, 50 μg/mL ascorbic acid, 1 μg/mL hydrocortisone hem isuccinate, 0.75 U/mL Heparin Sulfate, 10 mM L-glutamine, 2% fetal bovine serum in accordance with manufacturer instructions.
For transfection, cells can be plated in 6 well plates 12 hours before transfection and cultured under standard cell culture conditions. Peptide/siRNA nanoparticles are prepared and incubated with cells for 4 hours in a final volume of 1 mL Optimem I (Gibco) or appropriate media supplemented with 10% FBS. Transfections are scaled accordingly for cells plated in 12 well plates based on cell culture surface area. After transfection, cells are washed twice with PBS and incubated with standard cell culture medium for another 24-72 hours before analysis. Lipofectamine 2000 can be used in accordance with the manufacturer's protocol. Briefly, Lipofectamine 2000 is diluted in Optimem I to a final concentration of 8.4 μg/ml and incubated at room temperature for 15 minutes. siRNA is then added to the diluted lipid and incubated for another 40 minutes before dilution to 1 mL total volume with Optimem I for transfection. Suitable eGFP siRNA can be purchased from Sigma. siGENOME mouse MAPK9 siRNA1, siGENOME mouse STAT3 siRNA2, and siGENOME human STAT3 siRNA2 gene specific siRNAs can be purchased from Dharmacon (Lafayette, Colo.). Scrambled siRNA can be purchased from Qiagen (Valencia, Calif.).

[1] = charge ratio (+/−) 6:1 (peptide/siRNA 28:1 to 62:1 depending on peptide)
[2] = charge ratio (+/−) 12:1 (peptide/siRNA 56:1 to 124:1 depending on peptide)
[3] = charge ratio (+/−) 24:1 (peptide/siRNA 112:1 to 248:1 depending on peptide)
[4] = ratio of peptide:polynucleotide between 50:1 and 200:1

Row | Compound | Able to transfect? [1] | Able to transfect? [2] | Able to transfect? [3] | GFP knockdown [4] | ability to transfect [4] | ability to transfect (ratio of 50:1) | ability to transfect (ratio of peptide:polynucleotide less than 50:1) | toxicity to cells in the tested concentration range (B16 GFP cells, concentration range of the screen)
1 | VLTTGLPALISWIKRKRQQC [Peptide 5C] | No | No | No |  |  |  |  | 
2 | VLTTGLPALISWIRRRHRRHC [Peptide 5RHH] | Yes | Yes | Yes | exhibited GFP knockdown | able to transfect |  |  | 
3 | VLTTGLPALISWIKRKRQQRWRRRR [Peptide 5RWR] | No | No | No |  |  |  |  | 
4 | VLTTGLPALISWIKRKRQHRWRRRR [Peptide 5RWRH] | Yes | No | No |  |  | did not work | able to transfect | 
5 | CC[C@H](C)[C@H](NC(=O)CN)C(=O)NCC(=O)N[C@@H](C)C(=O)N[C@H](C(=O)N[C@@H](CC(C)C)C(=O)N[C@@H](CCCCN)C(=O)N[C@H](C(=O)N[C@@H](CC(C)C)C(=O)N[C@H](C(=O)N[C@H](C(=O)NCC(=O)N[C@@H](CC(C)C)C(=O)N1CCC[C@H]1C(=O)N[C@@H](C)C(=O)N[C@@H](CC(C)C)C(=O)N[C@H](C(=O)N[C@@H](CO)C(=O)N[C@@H](Cc1c[nH]c2ccccc12)C(=O)N[C@H](C(=O)N[C@@H](CCCCN)C(=O)N[C@@H](CCCNC(=N)N)C(=O)N[C@@H](CCCCN)C(=O)N[C@@H](CCCNC(=N)N)C(=O)N[C@@H](CCC(N)=O)C(=O)N[C@@H](CCC(N)=O)C(N)=O)[C@@H](C)CC)[C@@H](C)CC)[C@@H](C)O)[C@@H](C)O)C(C)C)C(C)C [Melittin] | No | Toxic | Toxic |  |  |  |  | too toxic
